Test results published in patent US11077090B2, “Compounds and compositions and uses thereof” (Sunovion Pharmaceuticals Inc., priority 2016, dated 2021).
Like-named read-outs stand apart in the source and are kept apart here.

System: compound-treated mice
Assay: Neuropharmacological assay (SmartCube): behavioral activity signature and minimal effective dose
Format: in vivo
Settings: for minimal effective dose: Mus musculus, ip; for AD: ADHD (probability of activity signature) / AG: analgesic (probability of activity signature) / AX: anxiolytic (probability of activity signature) / CE: cognitive enhancer (probability of activity signature) / DP: anti-depressant (probability of activity signature) / MS: mood stabilizer (probability of activity signature) / PS: anti-psychotic (probability of activity signature) / SD: sedative hypnotic (probability of activity signature) / UN: uncharacterized CNS activity (probability of activity signature): i.p. 15 min before test, most efficacious dose(s)
Procedure, shortened: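 Video-recorded behavior is compared algorithmically against a reference-compound database, yielding class probabilities (best dose reported). Compounds given i.p. in NMP/PEG/propylene glycol 15 min pre-test at 3 doses; potency as MED, the dose (mpk, range usually 0.3–30) reaching ≥50% total activity.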

[1] = MED = dose having 50% or more total activity, read-out: Potency: minimal effective dose (MED)
[2] = MED = dose having 50% or more total activity, read-out: Potency: minimal effective dose (MED), binned

## Cc1ccc2c(c1C)[C@@H](N)COC2 [Example 136]
[1]
  minimal effective dose: 3 to 10 mg/kg
  AD: ADHD (probability of activity signature): + (LOQ ≤ + <5%)
  AG: analgesic (probability of activity signature): ++ (5% ≤ ++ <25%)
  AX: anxiolytic (probability of activity signature): ++ (5% ≤ ++ <25%)
  CE: cognitive enhancer (probability of activity signature): ++ (5% ≤ ++ <25%)
  DP: anti-depressant (probability of activity signature): ++ (5% ≤ ++ <25%)
  MS: mood stabilizer (probability of activity signature): + (LOQ ≤ + <5%)
  PS: anti-psychotic (probability of activity signature): ++ (5% ≤ ++ <25%)
  SD: sedative hypnotic (probability of activity signature): + (LOQ ≤ + <5%)
  UN: uncharacterized CNS activity (probability of activity signature): +++ (25% ≤ +++ <50%)

## Cc1cccc2c1[C@H](N)CO[C@H]2C [Example 227]
[2]
  minimal effective dose: 3 to 10 mg/kg
  AD: ADHD (probability of activity signature): + (LOQ ≤ + <5%)
  AG: analgesic (probability of activity signature): ++ (5% ≤ ++ <25%)
  AX: anxiolytic (probability of activity signature): ++ (5% ≤ ++ <25%)
  CE: cognitive enhancer (probability of activity signature): + (LOQ ≤ + <5%)
  DP: anti-depressant (probability of activity signature): + (LOQ ≤ + <5%)
  MS: mood stabilizer (probability of activity signature): + (LOQ ≤ + <5%)
  PS: anti-psychotic (probability of activity signature): ++ (5% ≤ ++ <25%)
  SD: sedative hypnotic (probability of activity signature): + (LOQ ≤ + <5%)
  UN: uncharacterized CNS activity (probability of activity signature): ++++ (50% ≤ ++++)

## CCN(C)C(=O)Oc1ccc2c(c1)CO[C@@H](C)[C@H]2N(C)C.Cl [Example 285]
[2]
  minimal effective dose: 3 to 10 mg/kg
  AD: ADHD (probability of activity signature): ++ (5% ≤ ++ <25%)
  AG: analgesic (probability of activity signature): + (LOQ ≤ + <5%)
  AX: anxiolytic (probability of activity signature): ++ (5% ≤ ++ <25%)
  CE: cognitive enhancer (probability of activity signature): + (LOQ ≤ + <5%)
  DP: anti-depressant (probability of activity signature): ++ (5% ≤ ++ <25%)
  MS: mood stabilizer (probability of activity signature): ++++ (50% ≤ ++++)
  PS: anti-psychotic (probability of activity signature): ++++ (50% ≤ ++++)
  SD: sedative hypnotic (probability of activity signature): + (LOQ ≤ + <5%)
  UN: uncharacterized CNS activity (probability of activity signature): ++ (5% ≤ ++ <25%)

## Cc1ccc2c(c1)C(N)COCC2.Cl (stereo not drawn) [Example 31, 8-Methyl-1,2,4,5-tetrahydrobenzo[d]oxepin-1-amine hydrochloride]
MED = dose having 50% or more total activity, hydrochloride
  Potency: minimal effective dose (MED): C (>10 to ≤30 mpk)
  AD: ADHD (probability of activity signature): + (LOQ ≤ + <5%)
  AG: analgesic (probability of activity signature): ++ (5% ≤ ++ <25%)
  MS: mood stabilizer (probability of activity signature): + (LOQ ≤ + <5%)
  UN: uncharacterized CNS activity (probability of activity signature): +++ (25% ≤ +++ <50%)
hydrochloride
  AX: anxiolytic (probability of activity signature): ++ (5% ≤ ++ <25%)
  CE: cognitive enhancer (probability of activity signature): + (LOQ ≤ + <5%)
  DP: anti-depressant (probability of activity signature): ++ (5% ≤ ++ <25%)
  PS: anti-psychotic (probability of activity signature): + (LOQ ≤ + <5%)
  SD: sedative hypnotic (probability of activity signature): + (LOQ ≤ + <5%)

## CCN(C)C(=O)Oc1ccc2c(c1)CO[C@H](C)[C@H]2N.Cl [Example 280]
[2]
  minimal effective dose: 3 to 10 mg/kg
  AD: ADHD (probability of activity signature): + (LOQ ≤ + <5%)
  AG: analgesic (probability of activity signature): + (LOQ ≤ + <5%)
  AX: anxiolytic (probability of activity signature): + (LOQ ≤ + <5%)
  CE: cognitive enhancer (probability of activity signature): ++ (5% ≤ ++ <25%)
  DP: anti-depressant (probability of activity signature): ++ (5% ≤ ++ <25%)
  MS: mood stabilizer (probability of activity signature): ++ (5% ≤ ++ <25%)
  PS: anti-psychotic (probability of activity signature): + (LOQ ≤ + <5%)
  SD: sedative hypnotic (probability of activity signature): ++ (5% ≤ ++ <25%)
  UN: uncharacterized CNS activity (probability of activity signature): + (LOQ ≤ + <5%)

## Cc1cc2c(cc1C)[C@H](N)[C@@H](C)OC2.Cl [Example 238]
[2]
  minimal effective dose: 10 to 30 mg/kg
  AD: ADHD (probability of activity signature): + (LOQ ≤ + <5%)
  AG: analgesic (probability of activity signature): + (LOQ ≤ + <5%)
  AX: anxiolytic (probability of activity signature): ++ (5% ≤ ++ <25%)
  CE: cognitive enhancer (probability of activity signature): ++ (5% ≤ ++ <25%)
  DP: anti-depressant (probability of activity signature): + (LOQ ≤ + <5%)
  MS: mood stabilizer (probability of activity signature): + (LOQ ≤ + <5%)
  PS: anti-psychotic (probability of activity signature): ++ (5% ≤ ++ <25%)
  SD: sedative hypnotic (probability of activity signature): + (LOQ ≤ + <5%)
  UN: uncharacterized CNS activity (probability of activity signature): ++++ (50% ≤ ++++)

## N[C@@H]1COCc2ccc(Cl)c(Cl)c21 (single isomer, unassigned) [Example 119]
[1]
  minimal effective dose: < 3 mg/kg
  AD: ADHD (probability of activity signature): + (LOQ ≤ + <5%)
  AG: analgesic (probability of activity signature): ++ (5% ≤ ++ <25%)
  AX: anxiolytic (probability of activity signature): +++ (25% ≤ +++ <50%)
  CE: cognitive enhancer (probability of activity signature): ++ (5% ≤ ++ <25%)
  DP: anti-depressant (probability of activity signature): ++ (5% ≤ ++ <25%)
  MS: mood stabilizer (probability of activity signature): + (LOQ ≤ + <5%)
  PS: anti-psychotic (probability of activity signature): ++ (5% ≤ ++ <25%)
  SD: sedative hypnotic (probability of activity signature): ++ (5% ≤ ++ <25%)
  UN: uncharacterized CNS activity (probability of activity signature): ++++ (50% ≤ ++++)

## CC(C)C[C@@H]1OCc2ccccc2[C@@H]1N [Example 223]
[2]
  minimal effective dose: 3 to 10 mg/kg
  AD: ADHD (probability of activity signature): + (LOQ ≤ + <5%)
  AG: analgesic (probability of activity signature): + (LOQ ≤ + <5%)
  AX: anxiolytic (probability of activity signature): ++ (5% ≤ ++ <25%)
  CE: cognitive enhancer (probability of activity signature): + (LOQ ≤ + <5%)
  DP: anti-depressant (probability of activity signature): ++ (5% ≤ ++ <25%)
  MS: mood stabilizer (probability of activity signature): + (LOQ ≤ + <5%)
  PS: anti-psychotic (probability of activity signature): + (LOQ ≤ + <5%)
  SD: sedative hypnotic (probability of activity signature): ++ (5% ≤ ++ <25%)
  UN: uncharacterized CNS activity (probability of activity signature): +++ (25% ≤ +++ <50%)

## COc1ccc2c(c1)COCC2N.Cl (stereo not drawn) [Example 14]
[1]
  minimal effective dose: 10 to 30 mg/kg
  AD: ADHD (probability of activity signature): + (LOQ ≤ + <5%)
  AG: analgesic (probability of activity signature): ++ (5% ≤ ++ <25%)
  AX: anxiolytic (probability of activity signature): ++ (5% ≤ ++ <25%)
  CE: cognitive enhancer (probability of activity signature): + (LOQ ≤ + <5%)
  DP: anti-depressant (probability of activity signature): ++ (5% ≤ ++ <25%)
  MS: mood stabilizer (probability of activity signature): + (LOQ ≤ + <5%)
  PS: anti-psychotic (probability of activity signature): + (LOQ ≤ + <5%)
  SD: sedative hypnotic (probability of activity signature): + (LOQ ≤ + <5%)
  UN: uncharacterized CNS activity (probability of activity signature): ++++ (50% ≤ ++++)

## Cl.NC1COCc2ccc3c(c21)CCCO3 (stereo not drawn) [Example 52, 1,2,4,8,9,10-Hexahydropyrano[4,3-f]chromen-1-amine hydrochloride]
[1]
  minimal effective dose: 3 to 10 mg/kg
  AD: ADHD (probability of activity signature): + (LOQ ≤ + <5%)
  AG: analgesic (probability of activity signature): ++ (5% ≤ ++ <25%)
  AX: anxiolytic (probability of activity signature): +++ (25% ≤ +++ <50%)
  CE: cognitive enhancer (probability of activity signature): ++ (5% ≤ ++ <25%)
  DP: anti-depressant (probability of activity signature): ++ (5% ≤ ++ <25%)
  MS: mood stabilizer (probability of activity signature): + (LOQ ≤ + <5%)
  PS: anti-psychotic (probability of activity signature): ++ (5% ≤ ++ <25%)
  SD: sedative hypnotic (probability of activity signature): ++ (5% ≤ ++ <25%)
  UN: uncharacterized CNS activity (probability of activity signature): + (LOQ ≤ + <5%)

## COc1ccc2c(c1)CO[C@H](C)[C@H]2N.Cl [Example 232]
[2]
  minimal effective dose: 10 to 30 mg/kg
  AD: ADHD (probability of activity signature): + (LOQ ≤ + <5%)
  AG: analgesic (probability of activity signature): ++ (5% ≤ ++ <25%)
  AX: anxiolytic (probability of activity signature): ++ (5% ≤ ++ <25%)
  CE: cognitive enhancer (probability of activity signature): + (LOQ ≤ + <5%)
  DP: anti-depressant (probability of activity signature): + (LOQ ≤ + <5%)
  MS: mood stabilizer (probability of activity signature): + (LOQ ≤ + <5%)
  PS: anti-psychotic (probability of activity signature): + (LOQ ≤ + <5%)
  SD: sedative hypnotic (probability of activity signature): + (LOQ ≤ + <5%)
  UN: uncharacterized CNS activity (probability of activity signature): ++ (5% ≤ ++ <25%)

## COc1cccc2c1C(N)COC2.Cl (stereo not drawn) [Example 25]
[1]
  minimal effective dose: 10 to 30 mg/kg
  AD: ADHD (probability of activity signature): + (LOQ ≤ + <5%)
  AG: analgesic (probability of activity signature): ++ (5% ≤ ++ <25%)
  AX: anxiolytic (probability of activity signature): ++ (5% ≤ ++ <25%)
  CE: cognitive enhancer (probability of activity signature): ++ (5% ≤ ++ <25%)
  DP: anti-depressant (probability of activity signature): ++ (5% ≤ ++ <25%)
  MS: mood stabilizer (probability of activity signature): + (LOQ ≤ + <5%)
  PS: anti-psychotic (probability of activity signature): ++ (5% ≤ ++ <25%)
  SD: sedative hypnotic (probability of activity signature): + (LOQ ≤ + <5%)
  UN: uncharacterized CNS activity (probability of activity signature): +++ (25% ≤ +++ <50%)
